This note sets out measurements from patent publication US20250000874A1, “BACTERIAL METABOLITES AND THEIR USE IN REDUCING INFLAMMATION” (LOYOLA UNIVERSITY OF CHICAGO, priority 2023, published 2025).

For one test, the system named is Raw 264.7 Cells. The experiment in a line: JE on TNF-α and IL-6 production by Raw 264.7 cells upon TLR agonists. It counts as cell-based, mouse. Particulars: for decrease in TNF-α production: vs untreated macrophages. As for the experimental part: FIG. 13. The Effect of JE on TNF-α Production by Raw 264.7 Cells Upon Stimulation with TLR Agonists. Macrophages were incubated overnight with JE at a concentration of 50 μM at t 37° C., 5% CO2. The following day, the macrophages were stimulated with 10 ng/ml of LPS, 1 μg/ml of FLG-St, 3 μg/ml of PAM-3csk, 1 μM of ODN and 20 μg/ml of Poly: IC for 3 hours. Supernatants were collected, and TNF-α was measured by ELISA. The data are presented as mean±SEM (n=6). *p<0.05; **p<0.01; ***p<0.001. One of three experiments is shown.
FIG. 14. The Effect of JE on TNF-α Production by Raw 264.7 Cells Upon Stimulation with TLR Agonists. Macrophages were incubated overnight with JE at a concentration of 50 μM at 37° C., 5% CO2. The following day, the macrophages were stimulated with 1 μg/ml of FSL-1 2 μg/ml of Imiquimod for 3 hours. Supernatants were collected and TNF-α was measured by ELISA. Data are presented as mean±SEM (n=6). *p<0.05; **p<0.01; ***p <0.001. One of three experiments is shown.
FIG. 15. The Effect of JE on IL-6 Production by Raw 264.7 Cells Upon Stimulation with TLR Agonists. Macrophages were incubated overnight with JE at a concentration of 50 μM at t 37° C., 5% CO2. The following day, the macrophages were stimulated with TLR agonists at the same concentrations that I used for TNF-α induction. Supernatants were collected, and IL-6 was measured by ELISA. The data are presented as mean±SEM (n=6). *p<0.05; **p<0.01; ***p<0.001. One of three experiments is shown.
(§1) Murine macrophages, both RAW 264.7 macrophages and bone marrow-derived macrophages (BMDMs), were seeded and then pretreated overnight with the metabolite JE. The following day, the macrophages were stimulated with one of TLR agonists, including LPS, FLA-ST, ODN, Pam3SCK4, Poly: IC LMW, FSL, and Imiquimod for 3 hours, then the production of TNF-α, and IL-6 in the culture supernatants was measured by ELISA.

Another test deals with BMDMs. The experiment in a line: JE on TNF-α and IL-6 secretion by BMDMs upon LPS and TLR agonists. In kind it is cell-based, mouse. Here is the method:
FIG. 16. The Effect of JE on TNF-α Secretion by BMDMs in Response to Stimulation by Different Concentrations of LPS. BMDMs were isolated and cultured, as mentioned before. Macrophages were incubated overnight with JE at a concentration of 50 μM at 37° C., 5% CO2. The next day, they were stimulated with two-fold dilutions of LPS at a starting concentration of 5 ng/ml for 3 hours. Supernatants were collected, and TNF-α was measured using ELISA. Data are presented as mean±SEM (n=6). *p<0.05; **p<0.01; ***p<0.001. One of two experiments is shown.
FIG. 17. The Effect of JE on IL-6 Secretion by BMDMs in Response to Stimulation by Different Concentrations of LPS. BMDMs were isolated and cultured as described above. Macrophages were incubated overnight with JE at a concentration of 50 μM at 37° C., 5% CO2. The next day, they were stimulated with two-fold dilutions of LPS at a starting concentration of 5 ng/ml for 3 hours. Supernatants were collected, and IL-6 was measured using ELISA. Data are presented as mean±SEM (n=6). *p<0.05; **p<0.01; ***p<0.001. One of two experiments is shown.
FIG. 18. The Effect of JE on TNF-α Secretion by BMDMs in Response to Stimulation by TLR Agonists. BMDMs were isolated and cultured as described above. Macrophages were incubated overnight with JE at a concentration of 50 μM at 37° C., 5% CO2. The following day, they were stimulated with 1 μg/ml of FLG-ST, […] of ODN, 50 μg/ml of Poly: IC, 3 μg/ml of Imiquimod, 3 μg/ml and 1.5 μg/ml of PAM-3SCk, 1 μg/ml of FSL-1 for 3 hours. Supernatants were collected, and TNF-α was measured using ELISA. Data are presented as mean±SEM (n=6). *p<0.05; **p<0.01; ***p<0.001. One of three experiments is shown.
as §1
Therefore, I stimulated them with two-fold dilution of the concentration I used to stimulate RAW 264.7. […] On the other hand, JE could reduce IL-6 secretion by BMDMs at 5 ng/ml of LPS as depicted in FIG. 17.
Similar to treatment of RAW 264.7 macrophages with TLR agonists, I pretreated BMDMs with JE then stimulated them with FLG, ODN, PIC, Imiquimod, PAM-3SCK, and FSL-1. […] After 3 hours, Supernatants were collected, TNF-α and IL-6 were quantified by ELISA.

Setting [1] is: JE 50 μM overnight, TLR agonists 3 hours, vs media with TLR agonists.

On to `CC(=O)O[C@@H]1CC[C@H]2[C@H]3CC[C@H]4CC(F)(F)CC[C@]4(C)[C@H]3CC[C@]12C` [JE, 3,3-Difluoro-5-alpha-androstan-17-beta-yl acetate], for which the “decrease in TNF-α production” value in the test on Raw 264.7 Cells (JE 50 μM overnight, TLR 1/2 agonist PAM-3CSK) came out at 4 fold; in the test with Raw 264.7 Cells (JE 50 μM overnight, TLR 5 agonist FLG-ST), 4 fold. Further, the TNF-α secretion result in the test on Raw 264.7 Cells (JE 50 μM overnight, TLR2/6 agonist FSL-1) is “completely abolished”; in the test on Raw 264.7 Cells (JE 50 μM overnight, TLR-3 agonist Poly: IC LMW), “completely abolished”; in the test with BMDMs (JE 50 μM overnight, LPS 0.6 ng/ml 3 hours) it was “Significant inhibition”; in the test with BMDMs (JE 50 μM overnight, LPS 1.25 ng/ml 3 hours), “Significant inhibition”. The TNF-α production entry is listed as “reduced” with Raw 264.7 Cells (JE 50 μM overnight, TLR4 agonist LPS); “reduced” in the test with Raw 264.7 Cells (JE 50 μM overnight, TLR7 agonist Imiquimod); “failed to decrease” with BMDMs (JE, LPS 10 ng/ml); “did not significantly reduce” in the test with BMDMs (ODN and PAM-3SCK, previous experiment before two-fold dilutions). Besides, the “production of IL-6” value in the test with Raw 264.7 Cells (setting [1]) is “significantly reduced”. For the same compound, the “production of TNF-α” value in the test on Raw 264.7 Cells (setting [1]) is “significantly reduced”. In addition, in the test on Raw 264.7 Cells (JE pretreatment, LPS, relative to untreated macrophages), the “decrease in IL-6 secreted” value is listed as 4 fold. The IL-6 secretion entry with BMDMs (JE 50 μM overnight, LPS 5 ng/ml 3 hours) is listed as “could reduce”. In the test with BMDMs (JE 50 μM overnight, FLG, ODN, PIC, Imiquimod, PAM-3SCK, FSL-1, 3 hours), the “TNF-α secretion upon stimulation with TLR agonists” value is listed as “decreased”. For the same compound, the “IL-6 secretion upon stimulation with TLR agonists” value in the test on BMDMs (JE 50 μM overnight, TLR agonists 3 hours) is recorded as “decreased”. For the same compound, in the test with BMDMs (JE, LPS 10 ng/ml), the IL-6 production result is listed as “failed to decrease”.
